The results in this text go back to patent publication US20040110763A1, “Pyrazolopyridine compound and pharmaceutical use thereof” (priority 2000, published 2004).

The target in one series is T1, human A1 receptor (Homo sapiens, UniProt P30542).
T1 sequence (P30542 1-326): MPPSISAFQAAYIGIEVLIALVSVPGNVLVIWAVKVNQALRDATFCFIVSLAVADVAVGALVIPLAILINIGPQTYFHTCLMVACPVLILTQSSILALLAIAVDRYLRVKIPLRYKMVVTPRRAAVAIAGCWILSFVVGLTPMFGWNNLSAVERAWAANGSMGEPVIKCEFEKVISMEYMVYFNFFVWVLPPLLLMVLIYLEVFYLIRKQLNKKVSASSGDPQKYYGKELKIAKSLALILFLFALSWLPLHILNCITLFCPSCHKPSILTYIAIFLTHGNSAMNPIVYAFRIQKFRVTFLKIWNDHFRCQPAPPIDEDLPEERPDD
The series can be described thus: Adenosine antagonistic activity, radioligand binding, A1 receptor. The conditions noted are these: [3H]DPCPX 4.5 nM. As for the experimental part:
(§1) Test 1: Adenosine Antagonistic Activity
(§2) The adenosine antagonistic activity [Ki(nM)] of the test compound was examined by radioligand binding techniques using 8-cyclopentyl-1,3-dipropylxanthine, [dipropyl-2,3-^3H(N)] ([^3H]DPCPX, 4.5 nM) for human A1 receptor and [^3H]CGS 21680 (20 nM) for human A2a receptor.

The target in the next series is human A2a receptor (Homo sapiens, UniProt P29274). The series can be described thus: Adenosine antagonistic activity, radioligand binding, A2a receptor. The settings on record: [3H]CGS 21680 20 nM. Here is the method:
as §1, §2

The next series concerns ddY mice. Kind of series: Anticatalepsy activity in mouse (haloperidol-induced catalepsy). The series is classed as in vivo. The conditions noted are these: 3.2 mg/kg orally, ddY mice n=7; haloperidol 0.32 mg/kg i.p. 30 min after compound; measured 30 min after injection, bar test up to 30 sec. As for the experimental part: Test 2: Anticatalepsy Activity in Mouse
The test compound (3.2 mg/kg) was administered orally with ddY mice (n=7). Then, haloperidol (0.32 mg/kg) was injected intraperitoneally 30 min. after the administration of the compound. Thirty min. after the injection, the cataleptic responses of mice were measured. The forelimbs of each mouse were placed on a 3 cm high, 3 mm wide horizontal bar, and the duration of cataleptic posture was measured for up to 30 sec.

human A2a receptor, sequence (P29274 whole entry): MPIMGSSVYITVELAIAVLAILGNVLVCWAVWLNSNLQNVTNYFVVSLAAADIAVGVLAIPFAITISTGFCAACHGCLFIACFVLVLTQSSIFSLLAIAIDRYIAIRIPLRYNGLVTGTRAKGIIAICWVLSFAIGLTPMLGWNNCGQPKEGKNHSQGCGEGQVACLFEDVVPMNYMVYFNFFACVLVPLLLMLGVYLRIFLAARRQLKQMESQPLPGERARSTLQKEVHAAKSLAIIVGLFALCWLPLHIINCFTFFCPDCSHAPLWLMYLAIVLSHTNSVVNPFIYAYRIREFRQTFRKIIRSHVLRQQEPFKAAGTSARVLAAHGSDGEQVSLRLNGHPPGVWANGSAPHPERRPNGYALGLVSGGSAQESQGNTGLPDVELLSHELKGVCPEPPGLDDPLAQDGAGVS

By Ki is commonly meant the dissociation constant of the complex between target and ligand, obtained from inhibition or displacement. Lower therefore signals tighter binding. For the molecule `CC(C)n1nc(-c2c(-c3ccccc3)nn3ccc(C(=O)N(C)C)cc23)ccc1=O` [Example 72, N,N-dimethyl-3-(3-oxo-2-isopropyl-2,3-dihydropyridazin-6-yl)-2-phenylpyrazolo[1,5-a]pyridine-5-carboxamide], the inhibition constant Ki on human A1 receptor was determined as 0.25 nM; on human A2a receptor, 1.68 nM. Moreover, the “Manifestation rate of catalepsy (number of mouse)” value (from here on “Manifestation rate of catalepsy”) in the series with ddY mice is given as 0/7.
The term melting point denotes the temperature, or range, at which the solid turns liquid. As to `CC(C)n1nc(-c2c(-c3ccccc3)nn3ccc(NC(=O)OC(C)(C)C)cc23)ccc1=O` [Example 145, tert-butyl 3-(3-oxo-2-isopropyl-2,3-dihydropyridazin-6-yl)-2-phenylpyrazolo[1,5-a]pyridin-5-ylcarbamate], the melting point lay in the range of 208 to 210 °C. Besides, on human A1 receptor, the affinity, expressed as Ki, was 0.48 nM. On human A2a receptor, this molecule displayed a Ki of 1.03 nM. Also, the “Manifestation rate of catalepsy” value in the series with ddY mice is listed as 0/7.
Regarding `CC(C)n1nc(-c2c(-c3ccccc3)nn3ccc(Oc4ccccn4)cc23)ccc1=O` [Example 31, 5-(2-pyridinyloxy)-3-(3-oxo-2-isopropyl-2,3-dihydropyridazin-6-yl)-2-phenylpyrazolo[1,5-a]pyridine], the melting point lay in the range of 140.5 to 141.5 °C. Besides, the Ki at human A1 receptor was 0.42 nM. In addition, the Ki at human A2a receptor stood at 1.44 nM. In addition, the “Manifestation rate of catalepsy” value in the series on ddY mice is on record as 0/7.
For `CC(C)n1nc(-c2c(-c3ccccc3)nn3ccc(N4CCN(C)CC4)cc23)ccc1=O` [Example 96, 5-(4-methyl-1-piperazinyl)-3-(3-oxo-2-isopropyl-2,3-dihydropyridazin-6-yl)-2-phenylpyrazolo[1,5-a]pyridine] the same measures were 170 to 171 °C, 0.24 nM, 1.28 nM and 0/7.
For the molecule `CC(C)n1nc(-c2c(-c3ccccc3)nn3ccc(O)cc23)ccc1=O` [Example 3, 5-Hydroxy-3-(3-oxo-2-isopropyl-2,3-dihydropyridazin-6-yl)-2-phenylpyrazolo[1,5-a]pyridine], the melting point is over 250 °C. For the same molecule, on human A1 receptor, affinity was put at a Ki of 0.14 nM. In addition, on human A2a receptor, affinity was put at a Ki of 1.05 nM.
As to `CC(C)n1nc(-c2c(-c3ccccc3)nn3ccc(OCCC4CCCCC4)cc23)ccc1=O` [Example 23, 5-(2-Cyclohexylethoxy)-3-(3-oxo-2-isopropyl-2,3-dihydropyridazin-6-yl)-2-phenylpyrazolo[1,5-a]pyridine], the melting point fell in the range of 146 to 147 °C.
For the molecule `CC(C)n1nc(-c2c(-c3ccccc3)nn3ccc(NC(=O)c4ccccc4)cc23)ccc1=O` [Example 148, 5-Benzoylamino-3-(3-oxo-2-isopropyl-2,3-dihydropyridazin-6-yl)-2-phenylpyrazolo[1,5-a]pyridine], the melting point was in the range of 266 to 267 °C.
On the same count and under the same terms, under `CC(=O)N1CCN(c2ccn3nc(-c4ccccc4)c(-c4ccc(=O)n(C(C)C)n4)c3c2)CC1` [Example 113, 5-(4-Acetyl-1-piperazinyl)-3-(3-oxo-2-isopropyl-2,3-dihydropyridazin-6-yl)-2-phenylpyrazolo[1,5-a]pyridine] stands 148 to 149 °C.
As for `CC(C)n1nc(-c2c(-c3ccccc3)nn3ccc(OCC(=O)N(C)C)cc23)ccc1=O` [Example 40, 2-{[3-(3-oxo-2-isopropyl-2,3-dihydropyridazin-6-yl)-2-phenylpyrazolo[1,5-a]pyridin-5-yl]oxy}-N,N-dimethylacetamide], the melting point was in the range of 189 to 190 °C.
The molecule `COc1ccc(Oc2ccn3nc(-c4ccccc4)c(-c4ccc(=O)n(C(C)C)n4)c3c2)nc1` [Example 47, 5-[(5-Methoxy-2-pyridinyl)oxy]-3-(3-oxo-2-isopropyl-2,3-dihydropyridazin-6-yl)-2-phenylpyrazolo[1,5-a]pyridine] showed a melting point of 148 to 150 °C.
Turning to `CC(C)n1nc(-c2c(-c3ccccc3)nn3ccc(C(=O)N4CCC(c5ccccc5)CC4)cc23)ccc1=O` [Example 84, 5-[(4-Phenyl-1-piperidinyl)carbonyl]-3-(3-oxo-2-isopropyl-2,3-dihydropyridazin-6-yl)-2-phenylpyrazolo[1,5-a]-pyridine], the melting point is 184 to 185 °C.
The same measure, in the same setting: under `CCOc1ccn2nc(-c3ccccc3)c(-c3ccc(=O)n(C(C)C)n3)c2c1` [Example 26, 5-Ethoxy-3-(3-oxo-2-isopropyl-2,3-dihydropyridazin-6-yl)-2-phenylpyrazolo[1,5-a]pyridine] stands 181 to 182 °C; under `CC(C)n1nc(-c2c(-c3ccccc3)nn3ccc(OCCN4CC4)cc23)ccc1=O`, 159 to 160 °C.
Same read-out and setting: in the case of `CCCn1nc(-c2c(-c3ccccc3)nn3ccc(OC)cc23)ccc1=O` [Example 117, 5-Methoxy-3-(3-oxo-2-propyl-2,3-dihydropyridazin-6-yl)-2-phenylpyrazolo[1,5-a]pyridine] it was 174 °C; in that of `CC(C)n1nc(-c2c(-c3ccccc3)nn3ccc(N4CCN(Cc5ccccc5)CC4)cc23)ccc1=O` [Example 105, 5-(4-Benzyl-1-piperazinyl)-3-(3-oxo-2-isopropyl-2,3-dihydropyridazin-6-yl)-2-phenylpyrazolo[1,5-a]pyridine], 136 to 138 °C; in that of `CCCOc1ccn2nc(-c3ccccc3)c(-c3ccc(=O)n(C(C)C)n3)c2c1` [Example 21, 5-Propoxy-3-(3-oxo-2-isopropyl-2,3-dihydropyridazin-6-yl)-2-phenylpyrazolo[1,5-a]pyridine], 161.5 to 162.5 °C.
Still for that read-out and setting: under `CC(C)n1nc(-c2c(-c3ccccc3)nn3c(N)cccc23)ccc1=O` [Example 134, 7-Amino-3-(3-oxo-2-isopropyl-2,3-dihydropyridazin-6-yl)-2-phenylpyrazolo[1,5-a]pyridine] stands 218 to 219 °C; under `CCCCNC(=O)c1ccn2nc(-c3ccccc3)c(-c3ccc(=O)n(C(C)C)n3)c2c1` [Example 143, N-(n-Butyl)-3-(3-oxo-2-isopropyl-2,3-dihydropyridazin-6-yl)-2-phenylpyrazolo[1,5-a]pyridine-5-carboxamide], 185 to 186 °C.
Turning to `CCCOc1cccn2nc(-c3ccccc3)c(-c3ccc(=O)n(C(C)C)n3)c12` [Example 197, 4-n-Propoxy-3-(3-oxo-2-isopropyl-2,3-dihydropyridazin-6-yl)-2-phenylpyrazolo [1,5-a]pyridine], the melting point was 176 to 177 °C.
Still for that read-out and setting: in the case of `COc1ccn2nc(-c3ccccc3)c(-c3ccc(=O)n([C@@H]4CCOC4)n3)c2c1` [Example 119, 5-Methoxy-3-[3-oxo-2-((3R)-tetrahydrofuran-3-yl)-2,3-dihydropyridazin-6-yl]-2-phenylpyrazolo[1,5-a]pyridine] it was 194 to 195 °C.
The molecule `CC(C)n1nc(-c2c(-c3ccccc3)nn3ccc(OCc4ccccn4)cc23)ccc1=O` [Example 12, 5-(2-Pyridinylmethoxy)-3-(3-oxo-2-isopropyl-2,3-dihydropyridazin-6-yl)-2-phenylpyrazolo[1,5-a]pyridine] showed a melting point of 150 to 151 °C.
Still for that read-out and setting: in the case of `CC(C)n1nc(-c2c(-c3ccccc3)nn3ccc(OCc4ccncc4)cc23)ccc1=O` [Example 19, 5-(4-Pyridinylmethoxy)-3-(3-oxo-2-isopropyl-2,3-dihydropyridazin-6-yl)-2-phenylpyrazolo[1,5-a]pyridine] it was 218 to 219.5 °C.
